Source: ChEMBL document CHEMBL3414520, “Synthesis, analgesic, anti-inflammatory and anti-ulcerogenic activities of certain novel Schiff's bases as fenamate isosteres” (Bioorg Med Chem Lett, 2015)

How the values were obtained:
Rattus norvegicus [1] = species on record: Rattus norvegicus; assay: animal or person; settings: Wistar, po, read-out: INH
physchem = settings: n-octanol/water
Description: n-Octanol-water partition coefficient, log P of the compound

Rattus norvegicus [2] = species on record: Rattus norvegicus; assay: animal or person; settings: Wistar, po, read-out: INH; remark: listed apart in the source
Rattus norvegicus [3] = species on record: Rattus norvegicus; settings: in vivo, po, 10 mg/kg, 17 h
Mus musculus = species on record: Mus musculus; assay: animal or person; settings: Swiss, po, 3 h, read-out: INH

SMILES	inhibition in vivo at 10 mg/kg (Rattus norvegicus [1])	logP (physchem)	inhibition in vivo at 10 mg/kg (Rattus norvegicus [2])	UI (Rattus norvegicus [3])	inhibition in vivo at 10 mg/kg (Mus musculus)
Cc1ccc(C(=O)Nc2ccccc2C(=O)N/N=C/c2ccccc2)cc1	15.9%	4.61	15.2%		
Cc1ccc(C(=O)Nc2ccccc2C(=O)N/N=C/c2ccc(O)cc2)cc1	23.3%	4.14	19.5%		
Cc1ccc(C(=O)Nc2ccccc2C(=O)N/N=C/c2ccc(O)c(O)c2)cc1	55.1%	4.02	55.3%	1.417	77.8%
COc1cc(/C=N/NC(=O)c2ccccc2NC(=O)c2ccc(C)cc2)ccc1O	23.3%	4.1	19.5%		
Cc1ccc(C(=O)Nc2ccccc2C(=O)N/N=C/c2ccc(Cl)cc2Cl)cc1	1.06%	6.12	0.35%		
COc1ccc(/C=N/NC(=O)c2ccccc2NC(=O)c2ccc(C)cc2)cc1	22.6%	4.66	19.3%		
COc1cc(OC)c(OC)cc1/C=N/NC(=O)c1ccccc1NC(=O)c1ccc(C)cc1	62.2%	4.23	62.4%	1.75	46.2%
COc1cc(/C=N/NC(=O)c2ccccc2NC(=O)c2ccc(C)cc2)cc(OC)c1OC	64.3%	4.63	62.8%	1.583	34.2%
COc1cc(OC)c(/C=N/NC(=O)c2ccccc2NC(=O)c2ccc(C)cc2)c(OC)c1	14.5%	4.87	13.1%		
Cc1ccc(C(=O)Nc2ccccc2C(=O)N/N=C/c2ccc(N(C)C)cc2)cc1	22.3%	4.41	22.3%		
